Read-outs that look alike come from different tables or passages of the source. Each block holds one compound with its values, some of them ahead of it.
Target: T1, human 5-HT3A receptors (Homo sapiens, UniProt P46098)
T1 sequence (P46098 24-478): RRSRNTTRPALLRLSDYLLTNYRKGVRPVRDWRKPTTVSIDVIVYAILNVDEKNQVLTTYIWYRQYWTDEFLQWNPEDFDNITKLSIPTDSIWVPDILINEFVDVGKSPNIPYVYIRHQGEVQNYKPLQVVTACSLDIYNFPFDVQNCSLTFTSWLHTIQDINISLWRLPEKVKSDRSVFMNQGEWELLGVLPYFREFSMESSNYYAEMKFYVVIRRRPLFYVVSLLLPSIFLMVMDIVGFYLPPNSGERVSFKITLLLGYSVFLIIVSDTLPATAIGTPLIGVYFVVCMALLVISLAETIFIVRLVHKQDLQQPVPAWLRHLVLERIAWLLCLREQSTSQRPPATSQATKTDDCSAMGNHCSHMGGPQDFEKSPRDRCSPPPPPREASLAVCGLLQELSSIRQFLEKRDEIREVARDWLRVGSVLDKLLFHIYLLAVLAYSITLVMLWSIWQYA
Test: Two-electrode voltage-clamp: modulation of 5-HT-induced currents at 5-HT3A receptors heterologously expressed in Xenopus laevis oocytes
Assay type: cell-based
Design: key to mode of antagonism: c, apparently competitive; nc, non-competitive
Settings: for synergistic effects between different herbal 5-HT3A receptor antagonists: pairs: 6-gingerol and citronellol, hesperetin and 6-shogaol (Supplementary Figure 3); for IC50: read-out: IC50 of substances; for inhibition of the 5-HT3A receptor response by solvent: solvent 1.0 Vol.-%
Description: The expression plasmid contains the cDNA coding for the 5-HT3A protein in pcDNA3 (Invitrogen) (Lobitz et al., [2001]). cRNAs were prepared using the AmpliCap T7 high-yield message marker kit (Epicenter, Madison, WI, USA), following the manufacturer's protocol. Xenopus laevis oocytes were obtained as previously described (Sherkheli et al., [2010]) and injected with a total amount of 7–20 ng of the receptor-coding cRNA using an injection-setup from WPI (Nanoliter 2000, Micro4). The injected oocytes were stored in ND 96 (96.0 mM NaCl, 2.0 mM KCl, 1.8 mM CaCl2, 1.0 mM MgCl2, 5.0 mM HEPES, pH 7.2, 200 U/ml penicillin, and 200 μg/ml streptomycin) at 17°C. Measurements were performed one to 5 days after cRNA injection.
The electrophysiological recordings were performed using the two-electrode voltage-clamp technique as previously described (Saras et al., [2008]). All of the measurements were performed in normal frog ringer (NFR) [115 mM NaCl, 2.5 mM KCl, 1.8 mM CaCl2, 10 mM HEPES; pH 7.2 (NaOH/HCl)] containing niflumic acid (NA) (100 μM) to block the Ca^2+-induced currents mediated by the intrinsic chloride channel (TMEM16A) or under Ca^2+-free conditions [115 mM NaCl, 2.5 mM KCl, 1.8 mM MgCl2, 10 mM HEPES; pH 7.2 (NaOH/HCl)]. All of the substances were applied after preincubation (30 s). The currents were recorded at a holding potential of typically −60 mV using the Cell Works 6.1.1. software (NPI).
As a control, we tested the competitive antagonists ondansetron (1 nM) and d-tubocurarine (20 μM) (Hope et al., [1996]) and the non-competitive antagonist picrotoxin (50 μM) (Das and Dillon, [2005]). […] Nevertheless, a definitive differentiation between competitive, allosteric, and concentration-dependent antagonists must be performed using ligand binding assays.
The concentration-response data were fitted with the Hill equation with variable slope using SigmaPlot 8.0 (SPSS). Thereby, the calculation of the EC50 and IC50-values was done. The deviations are represented by the standard error of the mean (SEM). The datasets were tested for statistically significant differences through Student's t-test using Excel 2010 (Microsoft) (^*p < 0.05; ^**p < 0.005; ^***p < 0.0005). For multiple comparisons, the significance levels were corrected via Bonferroni-correction.

[1] = from comparison of inhibition at 2.5 and 30 μM 5-HT
[2] = inhibition at 2.5 vs 30 μM 5-HT
[3] = read-out: Mean inhibition ± SEM [%] 5-HT [2.5 μM]
[4] = read-out: Mean inhibition ± SEM [%] 5-HT [30 μM]
[5] = substance 1 mM (Figure 2A), read-out: 5-HT3A receptor inhibition by the substances (screening)

- synergistic effects between different herbal 5-HT3A receptor antagonists: synergistic
Compound: CCCCC[C@H](O)CC(=O)CCc1ccc(O)c(OC)c1 [6-gingerol]

- synergistic effects between different herbal 5-HT3A receptor antagonists: synergistic
Compound: CCCCC/C=C/C(=O)CCc1ccc(O)c(OC)c1 [6-shogaol]

- inhibition of the 5-HT3A receptor response by solvent: 29.1 ± 4.7%
Compound: C[S+](C)[O-] [DMSO, dimethyl sulfoxide]

- inhibition of the 5-HT3A receptor response by solvent: 14.1 ± 2.6%
Compound: CCO [Ethanol, ethanol]

- mode of antagonism [1]: ^***/c
- mode of antagonism [2]: apparent competitive antagonism
- IC50: 28 ± 2.8 µM
- inhibition at 100 µM [3]: 64.7 ± 2.1%
- inhibition at 100 µM [4]: 17.3 ± 2.3%
- inhibition at 100 µM (substance 100 μM (Figure 2A), read-out: 5-HT3A receptor inhibition by the substances (screening)): 62.8 ± 2.1%
Compound: CC1(C)C=Cc2c(ccc3c2OC[C@@H](c2ccc(O)cc2O)C3)O1 [Glabridin, glabridin]

- inhibition at 1000 µM [5]: -3.1 ± 4.3%
Compound: CC1(C)[C@@H](O[C@H]2O[C@H](C(=O)O)[C@@H](O)[C@H](O)[C@H]2O[C@@H]2O[C@H](C(=O)O)[C@@H](O)[C@H](O)[C@H]2O)CC[C@]2(C)[C@H]3C(=O)C=C4[C@@H]5C[C@@](C)(C(=O)O)CC[C@]5(C)CC[C@@]4(C)[C@]3(C)CC[C@@H]12 [Glycyrrhizin, glycyrrhizin]

- mode of antagonism [1]: ^*/c
- inhibition at 0.001 µM [3]: 82.4 ± 3.4%
- inhibition at 0.001 µM [4]: 57.9 ± 5.3%
Compound: Cc1nccn1CC1CCc2c(c3ccccc3n2C)C1=O (centres unmarked) [Ondansetron, ondansetron, reference compound]

- synergistic effects between different herbal 5-HT3A receptor antagonists: synergistic
Compound: CC(C)=CCCC(C)CCO (centres unmarked) [citronellol]

- 5-HT3A receptor inhibition by the substances (screening) (substance 1 mM (Figure 2A)): antagonistic effects
- inhibition at 1000 µM [5]: 57 ± 6.1%
Compound: C[C@@H]1O[C@@H](OC[C@H]2O[C@@H](Oc3c(-c4ccc(O)c(O)c4)oc4cc(O)cc(O)c4c3=O)[C@H](O)[C@@H](O)[C@@H]2O)[C@H](O)[C@H](O)[C@H]1O [rutin]

Further lines, the compound ahead of its results:

Compound: O=C1C[C@@H](c2ccc(O)cc2)Oc2cc(O)ccc21 [(-)-liquiritigenin]
- mode of antagonism [1]: ^*/nc
- mode of antagonism [2]: non-competitive
- IC50: 210 ± 25 µM
- inhibition at 500 µM [3]: 84.5 ± 2.4%
- inhibition at 500 µM [4]: 93.5 ± 0.5%
- inhibition at 1000 µM [5]: 92.8 ± 2.2%

Compound: C=C1CCC[C@]2(C)C[C@]3(O)OC(=O)C(C)=C3C[C@@H]12 [Atractylenolide III, atractylenolide III]
- mode of antagonism [1]: ns/nc
- IC50: 1320 ± 145 µM
- inhibition at 1000 µM [3]: 55 ± 6.2%
- inhibition at 1000 µM [4]: 57.8 ± 6%

Compound: COc1cc2c3cc1Oc1cc(ccc1O)C[C@@H]1c4c(cc(OC)c(O)c4Oc4ccc(cc4)C[C@@H]3N(C)CC2)CC[N+]1(C)C [D-tubocurarine, d-tubocurarine, reference compound]
- mode of antagonism [1]: ^**/c
- inhibition at 20 µM [3]: 82 ± 3.5%
- inhibition at 20 µM [4]: 45.9 ± 4.8%

Compound: COc1ccc([C@@H]2CC(=O)c3c(O)cc(O)cc3O2)cc1O [Hesperetin, hesperetin]
- mode of antagonism [1]: ns/nc
- synergistic effects between different herbal 5-HT3A receptor antagonists: synergistic
- IC50: 218 ± 38 µM
- inhibition at 1000 µM [3]: 77.3 ± 9%
- inhibition at 1000 µM [4]: 79.7 ± 6.1%
- 5-HT3A receptor inhibition by the substances (screening) (substance 1 mM (Figure 2A)): antagonistic effects
- inhibition at 1000 µM [5]: 66.6 ± 9.3%

Compound: COc1ccc([C@@H]2CC(=O)c3c(O)cc(O[C@@H]4O[C@H](CO[C@@H]5O[C@@H](C)[C@H](O)[C@@H](O)[C@H]5O)[C@@H](O)[C@H](O)[C@H]4O)cc3O2)cc1O [Hesperidin, hesperidin]
- 5-HT3A receptor inhibition by the substances (screening) (substance 1 mM (Figure 2A)): no effect
- 5-HT3A receptor inhibition by the substances (screening) (substance 1 mM (Figure 2A), listed as hesperidin): −2.6 ± 5.3%

Compound: C=CC(C)(C)c1cc(/C=C/C(=O)c2ccc(O)cc2)c(OC)cc1O [Licochalcone A, licochalcone A]
- direct activation of 5-HT3A receptors: absence of the direct activation
- residual current remaining (5 μM 5-HT): approximately 40%
- mode of antagonism [1]: ^*/c
- mode of antagonism [2]: apparent competitive antagonism
- IC50: 14.4 ± 1.3 µM
- inhibition at 1000 µM [3]: 76.1 ± 6.1%
- inhibition at 1000 µM [4]: 58.7 ± 2.6%
- inhibition at 1000 µM [5]: 70.6 ± 3.1%

Compound: picrotoxin [reference compound]
- mode of antagonism [1]: ns/nc
- Mean inhibition ± SEM [%] 5-HT [2.5 μM] (substance 50 μM, 5-HT 2.5 μM, 30 s preincubation): 72.5 ± 3.7%
- Mean inhibition ± SEM [%] 5-HT [30 μM] (substance 50 μM, 5-HT 30 μM, 30 s preincubation): 73.0 ± 2.8%

From article PMC4490227, “Identification of Glycyrrhiza as the rikkunshito constituent with the highest antagonistic potential on heterologously expressed 5-HT3A receptors due to the action of flavonoids” (Frontiers in Pharmacology, 2015)
